Like-named read-outs stand apart in the source and are kept apart here.
What was measured:
[1] = biological target: FKBP12 (Homo sapiens, UniProt P62942); assay: FP assay, binding to human FKBPs (Table 1); conditions: fluorescence polarization assay
[2] = biological target: LpMip (Legionella pneumophila subsp. pneumophila, UniProt Q5ZXE0); assay: biochemical; format: binding
[3] = biological target: T1, FKBP51 (Homo sapiens, UniProt Q13451); assay: FP assay, binding to human FKBPs (Table 1); conditions: fluorescence polarization assay
T1 sequence (Q13451 1-457): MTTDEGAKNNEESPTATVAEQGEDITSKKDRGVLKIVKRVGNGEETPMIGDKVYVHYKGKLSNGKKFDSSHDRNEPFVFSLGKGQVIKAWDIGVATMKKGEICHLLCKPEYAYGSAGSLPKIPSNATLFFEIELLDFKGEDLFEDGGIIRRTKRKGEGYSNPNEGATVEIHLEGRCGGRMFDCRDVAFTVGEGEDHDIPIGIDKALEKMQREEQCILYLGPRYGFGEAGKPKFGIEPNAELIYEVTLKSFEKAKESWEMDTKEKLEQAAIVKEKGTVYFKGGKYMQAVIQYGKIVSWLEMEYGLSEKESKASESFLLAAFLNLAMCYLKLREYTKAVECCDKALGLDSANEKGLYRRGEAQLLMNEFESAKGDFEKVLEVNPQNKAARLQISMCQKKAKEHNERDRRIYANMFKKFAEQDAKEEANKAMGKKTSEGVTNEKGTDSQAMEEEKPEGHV

[4] = biological target: T2, FKBP52 (Homo sapiens, UniProt Q02790); assay: FP assay, binding to human FKBPs (Table 1); conditions: fluorescence polarization assay
T2 sequence (Q02790 1-459): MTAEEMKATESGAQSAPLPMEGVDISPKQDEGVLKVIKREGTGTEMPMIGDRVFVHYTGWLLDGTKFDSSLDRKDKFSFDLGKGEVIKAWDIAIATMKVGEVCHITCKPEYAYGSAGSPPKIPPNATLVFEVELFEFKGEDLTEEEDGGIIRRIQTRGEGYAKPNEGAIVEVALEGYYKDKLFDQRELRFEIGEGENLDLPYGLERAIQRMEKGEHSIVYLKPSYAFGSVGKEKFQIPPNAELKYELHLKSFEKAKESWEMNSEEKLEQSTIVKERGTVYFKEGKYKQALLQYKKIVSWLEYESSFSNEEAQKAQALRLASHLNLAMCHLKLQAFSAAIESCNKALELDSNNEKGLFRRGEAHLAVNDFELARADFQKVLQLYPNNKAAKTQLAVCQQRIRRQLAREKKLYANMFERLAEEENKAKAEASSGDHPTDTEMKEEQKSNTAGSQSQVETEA

[5] = biological target: FKBP12.6 (Homo sapiens, UniProt P68106); assay: FP assay, binding to human FKBPs (Table 1); conditions: fluorescence polarization assay
Chain of FKBP12.6 (P68106 whole entry): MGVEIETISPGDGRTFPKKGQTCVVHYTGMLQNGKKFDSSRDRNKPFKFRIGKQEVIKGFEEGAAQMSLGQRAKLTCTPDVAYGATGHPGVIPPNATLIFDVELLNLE

Chain of FKBP12 (P62942 whole entry): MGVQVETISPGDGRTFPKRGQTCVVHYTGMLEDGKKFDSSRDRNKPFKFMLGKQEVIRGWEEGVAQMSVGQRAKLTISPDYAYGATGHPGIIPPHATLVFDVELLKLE
Chain of LpMip (Q5ZXE0 21-233 limits assumed): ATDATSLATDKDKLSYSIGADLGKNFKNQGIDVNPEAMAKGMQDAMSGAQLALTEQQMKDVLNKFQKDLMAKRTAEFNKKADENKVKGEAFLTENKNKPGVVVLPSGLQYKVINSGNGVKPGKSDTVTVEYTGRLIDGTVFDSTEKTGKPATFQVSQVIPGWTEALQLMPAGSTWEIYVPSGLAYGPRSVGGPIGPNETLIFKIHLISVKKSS

| SMILES | Ki [1] | Ki ([2]; read-out: Ki LpMip) | Ki [3] | Ki [4] | Ki [5] | Ki [2] |
| --- | --- | --- | --- | --- | --- | --- |
| O=C1[C@@H]2CCC[C@H]([C@@H](CO)CN1Cc1ccccn1)N2S(=O)(=O)c1ccc2ncsc2c1 [25a] | 5.5 nM | 3980 nM | 283 nM | 190 nM | 3.8 nM | – |
| C=C[C@H]1CN([C@H](C)COCc2ccccc2)C(=O)[C@@H]2CCC[C@H]1N2S(=O)(=O)c1cc(Cl)cc(Cl)c1 [15b] | > 5000 nM | – | > 5000 nM | > 5000 nM | – | – |
| C=C[C@H]1CN(CC(=O)O)C(=O)[C@@H]2CCC[C@H]1N2S(=O)(=O)c1cc(Cl)cc(Cl)c1 [21a] | 33.4 nM | 5150 nM | 172 nM | 320 nM | – | – |
| C=C[C@H]1CN(Cc2ccccn2)C(=O)[C@@H]2CCC[C@H]1N2S(=O)(=O)c1ccc2ncsc2c1 [7a] | 7.5 nM | 5840 nM | 294 nM | 276 nM | 6 nM | – |
| CC[C@H]1CN([C@@H](C)c2ccccn2)C(=O)[C@@H]2CCC[C@H]1N2S(=O)(=O)c1ccc2ncsc2c1 [26b, (1S,5S,6R)-10-(benzo[d]thiazol-6-ylsulfonyl)-5-ethyl-3-((S)-1-(pyridin-2-yl)ethyl)-3,10-diazabicyclo[4.3.1]decan-2-one] | 1.9 nM | – | 27 nM | 22 nM | 0.6 nM | 284 nM |
| C=C[C@H]1CN([C@H](C)c2cn(-c3ccc(OC)cc3)nn2)C(=O)[C@@H]2CCC[C@H]1N2S(=O)(=O)c1cc(Cl)cc(Cl)c1 [19c] | 233 nM | – | – | 1030 nM | 390 nM | – |
| C=C[C@H]1CN([C@@H](C)CO)C(=O)[C@@H]2CCC[C@H]1N2S(=O)(=O)c1cc(Cl)cc(Cl)c1 [20b, (1S,5S,6R)-10-((3,5-dichlorophenyl)sulfonyl)-3-((S)-1-hydroxypropan-2-yl)-5-vinyl-3,10-diazabicyclo[4.3.1]decan-2-one] | 3.5 nM | – | 107 nM | 116 nM | – | – |
| CC[C@H]1CN(Cc2ccccn2)C(=O)[C@@H]2CCC[C@H]1N2S(=O)(=O)c1ccc2ncsc2c1 [26a] | 6.5 nM | 5150 nM | 410 nM | 285 nM | 5.2 nM | – |
| C=C[C@H]1CN([C@H](C)C(=O)O)C(=O)[C@@H]2CCC[C@H]1N2S(=O)(=O)c1cc(Cl)cc(Cl)c1 [21c] | 48 nM | – | 123 nM | 296 nM | – | – |
| C=C[C@H]1CN([C@@H](C)C(=O)O)C(=O)[C@@H]2CCC[C@H]1N2S(=O)(=O)c1cc(Cl)cc(Cl)c1 [21b, (2S)-2-((1S,5S,6R)-10-((3,5-dichlorophenyl)sulfonyl)-2-oxo-5-vinyl-3,10-diazabicyclo[4.3.1]decan-3-yl)propanoic acid] | 13 nM | – | 22 nM | 80 nM | – | 284 nM |
| C=C[C@H]1CN([C@@H](C)CO)C(=O)[C@@H]2CCC[C@H]1N2S(=O)(=O)c1ccc2ncsc2c1 [17a, (1S,5S,6R)-10-(benzo[d]thiazol-6-ylsulfonyl)-3-((S)-1-hydroxypropan-2-yl)-5-vinyl-3,10-diazabicyclo[4.3.1]decan-2-one] | 21 nM | – | 110 nM | 102 nM | – | – |
| C=C[C@H]1CN(Cc2ccccn2)C(=O)[C@@H]2CCC[C@H]1N2S(=O)(=O)c1cc(Cl)cc(Cl)c1 [6a] | 1.3 nM | 1350 nM | 119 nM | 54 nM | 17 nM | – |
| C=C[C@H]1CN(Cc2cn(-c3ccc(OC)cc3)nn2)C(=O)[C@@H]2CCC[C@H]1N2S(=O)(=O)c1cc(Cl)cc(Cl)c1 [19a] | 15 nM | – | – | 361 nM | 16 nM | – |
| C[C@@H](c1ccccn1)N1C[C@H](CO)[C@H]2CCC[C@@H](C1=O)N2S(=O)(=O)c1cc(Cl)cc(Cl)c1 [23b, (1S,5S,6R)-10-((3,5-dichlorophenyl)sulfonyl)-5-(hydroxymethyl)-3-((S)-1-(pyridin-2-yl)ethyl)-3,10-diazabicyclo[4.3.1]decan-2-one] | 0.06 nM | – | 1.9 nM | 1.2 nM | 0.31 nM | 36 nM |
| C=C[C@H]1CN(CCO)C(=O)[C@@H]2CCC[C@H]1N2S(=O)(=O)c1cc(Cl)cc(Cl)c1 [20a] | 20 nM | – | 403 nM | 387 nM | – | – |
| C=C[C@H]1CN([C@H](C)c2ccccn2)C(=O)[C@@H]2CCC[C@H]1N2S(=O)(=O)c1cc(Cl)cc(Cl)c1 [6e] | 130 nM | – | > 1000 nM | > 1000 nM | 812 nM | – |
| C=C[C@H]1CN([C@@H](C)COC)C(=O)[C@@H]2CCC[C@H]1N2S(=O)(=O)c1cc(Cl)cc(Cl)c1 [22b, (1S,5S,6R)-10-((3,5-dichlorophenyl)sulfonyl)-3-((S)-1-methoxypropan-2-yl)-5-vinyl-3,10-diazabicyclo[4.3.1]decan-2-one] | 14 nM | – | 204 nM | 205 nM | – | – |
| O=C1[C@@H]2CCC[C@H]([C@@H](CO)CN1Cc1ccccn1)N2S(=O)(=O)c1cc(Cl)cc(Cl)c1 [23a] | 0.35 nM | 467 nM | 33 nM | 19 nM | 3.4 nM | – |
| C=C[C@H]1CN([C@H](C)COC)C(=O)[C@@H]2CCC[C@H]1N2S(=O)(=O)c1cc(Cl)cc(Cl)c1 [22c] | > 5000 nM | – | > 5000 nM | > 5000 nM | – | – |
| C=C[C@H]1CN([C@@H](C)COCc2ccccc2)C(=O)[C@@H]2CCC[C@H]1N2S(=O)(=O)c1ccc2ncsc2c1 [16a, (1S,5S,6R)-10-(benzo[d]thiazol-6-ylsulfonyl)-3-((S)-1-(benzyloxy)propan-2-yl)-5-vinyl-3,10-diazabicyclo[4.3.1]decan-2-one] | 28 nM | – | 263 nM | 316 nM | – | – |
| C=C[C@H]1CN([C@H](C)c2ccccn2)C(=O)[C@@H]2CCC[C@H]1N2S(=O)(=O)c1ccc2ncsc2c1 [7e] | 240 nM | – | 4550 nM | 3450 nM | 157 nM | – |
| C=C[C@H]1CN([C@@H](C)c2cn(-c3ccc(OC)cc3)nn2)C(=O)[C@@H]2CCC[C@H]1N2S(=O)(=O)c1cc(Cl)cc(Cl)c1 [19b, (1S,5S,6R)-10-((3,5-dichlorophenyl)sulfonyl)-3-((S)-1-(1-(4-methoxyphenyl)-1H-1,2,3-triazol-4-yl)ethyl)-5-vinyl-3,10-diazabicyclo[4.3.1]decan-2-one] | 4.3 nM | – | – | 91 nM | 16 nM | – |
| C=C[C@H]1CN([C@H](C)CO)C(=O)[C@@H]2CCC[C@H]1N2S(=O)(=O)c1ccc2ncsc2c1 [17b] | > 5000 nM | – | > 5000 nM | > 5000 nM | – | – |
| COC[C@H]1CN(Cc2ccccn2)C(=O)[C@@H]2CCC[C@H]1N2S(=O)(=O)c1cc(Cl)cc(Cl)c1 [24a] | 0.65 nM | 497 nM | 12 nM | 11 nM | 3.4 nM | – |
| C[C@@H](c1ccccn1)N1C[C@H](CO)[C@H]2CCC[C@@H](C1=O)N2S(=O)(=O)c1ccc2ncsc2c1 [25b, (1S,5S,6R)-10-(benzo[d]thiazol-6-ylsulfonyl)-5-(hydroxymethyl)-3-((S)-1-(pyridin-2-yl)ethyl)-3,10-diazabicyclo[4.3.1]decan-2-one] | 1.5 nM | – | – | – | 0.7 nM | 237 nM |
| C=C[C@H]1CN([C@@H](C)c2ccccn2)C(=O)[C@@H]2CCC[C@H]1N2S(=O)(=O)c1ccc2ncsc2c1 [7d, (1S,5S,6R)-10-(benzo[d]thiazol-6-ylsulfonyl)-3-((S)-1-(pyridin-2-yl)ethyl)-5-vinyl-3,10-diazabicyclo[4.3.1]decan-2-one] | 2.2 nM | – | 33 nM | 29 nM | 0.9 nM | 366 nM |
| C=C[C@H]1CN([C@@H](C)COCc2ccccc2)C(=O)[C@@H]2CCC[C@H]1N2S(=O)(=O)c1cc(Cl)cc(Cl)c1 [15a, (1S,5S,6R)-3-((S)-1-(benzyloxy)propan-2-yl)-10-((3,5-dichlorophenyl)sulfonyl)-5-vinyl-3,10-diazabicyclo[4.3.1]decan-2-one] | 58 nM | – | 1080 nM | 1030 nM | – | – |
| C=C[C@H]1CN([C@H](C)COCc2ccccc2)C(=O)[C@@H]2CCC[C@H]1N2S(=O)(=O)c1ccc2ncsc2c1 [16b] | > 5000 nM | – | > 5000 nM | > 5000 nM | – | – |
| C=C[C@H]1CN(CCOC)C(=O)[C@@H]2CCC[C@H]1N2S(=O)(=O)c1cc(Cl)cc(Cl)c1 [22a] | 59 nM | – | 529 nM | 377 nM | – | – |
| C=C[C@H]1CN([C@H](C)CO)C(=O)[C@@H]2CCC[C@H]1N2S(=O)(=O)c1cc(Cl)cc(Cl)c1 [20c] | > 5000 nM | – | > 5000 nM | > 5000 nM | – | – |

— patent US20230126391A1, “ALPHA-METHYL-SUBSTITUTED DIAZABICYCLO[4.3.1] DECANE DERIVATIVES FOR TREATMENT OF PSYCHIATRIC DISORDERS” (priority 2020, published 2023)
